# Results published in US20240307350A1, “5-METHOXY-N,N-DIMETHYLTRYPTAMINE (5-MEO-DMT) FOR TREATING DEPRESSION” (GH RESEARCH IRELAND LIMITED, priority 2019, published 2024).
# Like-named read-outs stand apart in the source and are kept apart here.
# Test: Clinical trial in healthy volunteers: 5-MeO-DMT and bufotenine plasma levels
# Format: in vivo, human
# Conditions: human, plasma, inhaled, read-out: 5-MeO-DMT plasma levels, group median; for concentration at 1 h: 1 hour after administration; for concentration at 3 h: 3 hours after administration
# Description: A clinical trial was performed in which 5-MeO-DMT free base (purity not less than 99%) at different dose levels was administered via inhalation (as described in Example 1) in a single day to healthy volunteers who had prior experiences with the use of synthetic or naturally-occurring psychedelics. The trial was reviewed and approved by the relevant national competent authority and local medical ethics committee. The trial consisted of two parts: Part A, where single doses of 5-MeO-DMT dosage amounts of 2 mg, 6 mg, 12 mg and 18 mg were administered; and Part B, where an initial 5-MeO-DMT dosage amount of 6 mg was administered, and then, unless the participant had already experienced a peak psychedelic experience based on the PPEQ or the supervising physician had decided that further dose increases were inappropriate based on observed side effects, further subsequent dosage amounts of 12 mg and 18 mg were administered with about 3 hours in between each administration. Participants in Part A only received one dose and were not allowed to receive higher doses in later parts of Part A and were not allowed to participate in Part B. Participants were closely monitored for 3.5 hours after the last dose, with additional follow-up visits 1 day and 7 days after dosing. Various safety related measures (e.g., adverse event reporting, safety laboratory analyses, vital signs, ECG, CADSS, PVT, DSST, Prospective Memory Task (PMT)) as well as measures of the intensity of the psychedelic effects (MEQ30, ASC, PPEQ, subjective description of the psychedelic experience) were recorded. Pharmacokinetic analysis of 5-MeO-DMT and bufotenine plasma levels was performed at 1 hour and 3 hours after drug administration in Part A, and at 3 hours after drug administration in Part B.
smiles,measurement,setting,value
"COc1ccc2[nH]cc(CCN(C)C)c2c1 [5-MeO-DMT, 5-methoxy-N,N-dimethyltryptamine]",concentration at 1 h,"2 mg, Part A 2 mg (n = 4), range 0.03-0.69",0.38 ng/mL
same,concentration at 3 h,"2 mg, Part A 2 mg (n = 4), range 0.01-0.04",0.03 ng/mL
same,concentration at 1 h,"6 mg, Part A 6 mg (n = 6), range 0.09-0.64",0.33 ng/mL
same,concentration at 3 h,"6 mg, Part A 6 mg (n = 6), range 0.00-0.06",0.02 ng/mL
same,concentration at 3 h,"6 mg, Part B 6 mg (n = 4), range 0.00-0.09",0.01 ng/mL
same,concentration at 1 h,"12 mg, Part A 12 mg (n = 4), range 0.13-0.29",0.19 ng/mL
same,concentration at 3 h,"12 mg, Part A 12 mg (n = 4), range 0.01-0.01",0.01 ng/mL
same,concentration at 1 h,"18 mg, Part A 18 mg (n = 4), range 0.15-2.42",0.65 ng/mL
same,concentration at 3 h,"18 mg, Part A 18 mg (n = 4), range 0.01-0.24",0.04 ng/mL
same,concentration at 3 h,"Part B 6 mg, 12 mg (n = 3), range 0.01-0.05",0.03 ng/mL
same,concentration at 3 h,"Part B 6 mg, 12 mg, 18 mg (n = 1), range 0.05-0.05",0.05 ng/mL
